Reference: BindingDB's records for doi:10.1021/jm021012t (F. Hoffmann-La Roche, 2003)

Tests used:
[1] = molecular target: T1, P-glycoprotein (ABCB1, MDR1) (Homo sapiens, UniProt P08183); assay: Inhibition of P-glycoprotein, human L-MDR1 expressed in LLC-PK1 epithelial cells using calcein-AM polarisation assay; conditions: LLC-PK1 epithelial cells expressing human MDR1 (L-MDR1), probe calcein-AM
[2] = molecular target: T1, P-glycoprotein (ABCB1, MDR1); assay: TP_TRANSPORTER: inhibition of Calcein-AM efflux in MDR1-expressing LLC-PK1 cells; conditions: probe calcein-AM

T1 sequence (P08183 whole entry): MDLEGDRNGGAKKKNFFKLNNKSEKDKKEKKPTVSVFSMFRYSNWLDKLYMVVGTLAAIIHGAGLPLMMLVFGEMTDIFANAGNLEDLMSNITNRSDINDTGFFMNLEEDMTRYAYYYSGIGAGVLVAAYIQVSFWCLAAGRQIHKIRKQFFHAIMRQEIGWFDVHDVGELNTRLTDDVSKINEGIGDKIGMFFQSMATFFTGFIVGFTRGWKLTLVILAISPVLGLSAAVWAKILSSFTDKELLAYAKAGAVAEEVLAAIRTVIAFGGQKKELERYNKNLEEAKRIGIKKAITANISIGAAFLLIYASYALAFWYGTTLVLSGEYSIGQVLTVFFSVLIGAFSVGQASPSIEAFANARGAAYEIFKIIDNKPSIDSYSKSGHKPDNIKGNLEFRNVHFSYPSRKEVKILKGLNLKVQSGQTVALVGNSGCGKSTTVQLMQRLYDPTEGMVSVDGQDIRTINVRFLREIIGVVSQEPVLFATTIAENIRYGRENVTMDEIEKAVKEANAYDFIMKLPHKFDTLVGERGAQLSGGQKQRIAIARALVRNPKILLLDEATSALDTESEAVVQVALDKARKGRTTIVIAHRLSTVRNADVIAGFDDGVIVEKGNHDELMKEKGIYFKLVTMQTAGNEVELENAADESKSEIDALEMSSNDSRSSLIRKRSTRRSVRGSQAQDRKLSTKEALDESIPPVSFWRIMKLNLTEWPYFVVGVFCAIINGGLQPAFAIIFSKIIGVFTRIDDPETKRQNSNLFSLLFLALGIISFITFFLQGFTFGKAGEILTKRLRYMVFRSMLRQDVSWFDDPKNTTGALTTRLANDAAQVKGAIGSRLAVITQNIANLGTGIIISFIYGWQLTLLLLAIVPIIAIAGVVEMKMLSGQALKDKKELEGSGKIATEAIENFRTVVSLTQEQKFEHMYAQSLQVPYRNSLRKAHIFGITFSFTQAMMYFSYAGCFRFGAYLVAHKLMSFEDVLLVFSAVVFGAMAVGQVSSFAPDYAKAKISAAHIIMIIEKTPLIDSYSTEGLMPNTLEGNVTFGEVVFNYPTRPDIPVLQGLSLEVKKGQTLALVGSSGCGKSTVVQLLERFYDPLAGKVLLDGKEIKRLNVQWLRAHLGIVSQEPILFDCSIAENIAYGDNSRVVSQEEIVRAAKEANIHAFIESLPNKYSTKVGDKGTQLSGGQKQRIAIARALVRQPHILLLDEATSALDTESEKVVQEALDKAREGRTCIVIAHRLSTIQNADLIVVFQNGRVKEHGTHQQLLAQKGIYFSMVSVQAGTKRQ

IC50 [1]: 100 nM | IC50 [2]: 100 nM
Structure (SMILES): CC[C@H](C)[C@H]1O[C@]2(CC[C@@H]1C)C[C@@H]1C[C@@H](C/C=C(\C)[C@@H](O[C@H]3C[C@H](OC)[C@@H](O[C@H]4C[C@H](OC)[C@@H](O)[C@H](C)O4)[C@H](C)O3)[C@@H](C)/C=C/C=C3\CO[C@@H]4[C@H](O)C(C)=C[C@@H](C(=O)O1)[C@]34O)O2 [ABAMECTIN]
